In patent US20150080438A1, “6,7-Dihydro-5H-benzo[7]annulene derivatives, processes for their preparation, pharmaceutical products comprising them and their use for preparing medicaments” (Bayer Intellectual Property GmbH, priority 2011, published 2015):

Target: T1, oestrogen receptor (ER) (Homo sapiens, UniProt P03372)
T1 construct: These MVLN cells express, along with the functional oestrogen receptor (ER), a reporter construct; endogenous in cells; host or cells: MVLN cells (MCF7 derivative with ER-responsive luciferase reporter)
T1 sequence (P03372 1-595): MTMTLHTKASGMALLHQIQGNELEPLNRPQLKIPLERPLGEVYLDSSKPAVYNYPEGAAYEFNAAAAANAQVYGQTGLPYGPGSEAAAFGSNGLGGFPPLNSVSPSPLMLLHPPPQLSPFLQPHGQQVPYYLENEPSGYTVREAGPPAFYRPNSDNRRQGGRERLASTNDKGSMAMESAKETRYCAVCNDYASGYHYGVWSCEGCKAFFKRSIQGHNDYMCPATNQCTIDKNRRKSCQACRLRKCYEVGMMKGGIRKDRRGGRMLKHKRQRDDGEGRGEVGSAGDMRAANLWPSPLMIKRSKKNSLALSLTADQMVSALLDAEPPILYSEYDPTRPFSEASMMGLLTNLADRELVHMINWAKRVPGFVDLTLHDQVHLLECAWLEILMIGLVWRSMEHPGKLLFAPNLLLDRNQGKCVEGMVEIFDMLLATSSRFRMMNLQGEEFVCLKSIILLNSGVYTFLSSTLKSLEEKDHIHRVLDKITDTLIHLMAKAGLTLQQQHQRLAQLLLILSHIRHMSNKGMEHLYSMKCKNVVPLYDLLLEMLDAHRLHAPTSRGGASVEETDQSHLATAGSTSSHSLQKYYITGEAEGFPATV
Assay: Anti-oestrogenic action in MVLN cells (inhibition of estradiol-induced luciferase, transactivation antagonism)
Format: cell-based
Details: inhibition of estradiol-induced luciferase activity, read-out: Anti-oestrogenic action in vitro: MVLN transactivation antagonism IC50
Text: The anti-oestrogenic action of the claimed pharmacological compounds was investigated in so-called MVLN cells in vitro. MVLN cells are derivatives of the hormone-responsive MCF7 breast cancer cells known by a person skilled in the art. These MVLN cells express, along with the functional oestrogen receptor (ER), a reporter construct, which under ER-activation expresses luciferase. Determination of the activity of the induced luciferase permits a direct conclusion on the oestrogen properties of substances. To investigate the anti-oestrogenic properties of the pharmacological compounds, they were investigated in the presence of oestrogen for their potential for inhibiting the luciferase signal induced by estradiol.
The claimed pharmacological test substances were investigated in MVLN cells for their anti-oestrogenic potential, as described (see Table 2).

IC50 | SMILES
11 nM | [O-][S+](CCCN(CCO)CCCCCCC1=C(c2ccccc2)CCCc2cc(O)ccc21)CCC(F)(F)F (racemic) [Example 78, 9-{6-[(2-Hydroxyethyl){3-[(RS)-(3,3,3-trifluoropropyl)sulphinyl]propyl}amino]hexyl}-8-phenyl-6,7-dihydro-5H-benzo[7]annulen-3-ol]
9 nM | [O-][S+](CCCN(CCCO)CCCCCCC1=C(c2ccccc2)CCCc2cc(O)ccc21)CCC(F)(F)F (racemic) [Example 80, 9-{6-[(3-Hydroxypropyl){3-[(RS)-(3,3,3-trifluoropropyl)sulphinyl]propyl}amino]hexyl}-8-phenyl-6,7-dihydro-5H-benzo[7]annulen-3-ol]
9 nM | CC(C)(O)CN(CCCCCCC1=C(c2ccccc2)CCCc2cc(O)ccc21)CCC[S+]([O-])CCC(F)(F)F (racemic) [Example 82, 9-{6-[(2-Hydroxy-2-methylpropyl){3-[(RS)-(3,3,3-trifluoropropyl)sulphinyl]propyl}amino]hexyl}-8-phenyl-6,7-dihydro-5H-benzo[7]annulen-3-ol]
31 nM | CN(CCCCCC1=C(c2ccccc2)CCCc2cc(O)ccc21)CCCC[S+]([O-])CCCC(F)(F)C(F)(F)F (racemic) [Example 84, 9-[5-(Methyl{4-[(RS)-(4,4,5,5,5-pentafluoropentyl)sulphinyl]butyl}amino)pentyl]-8-phenyl-6,7-dihydro-5H-benzo[7]annulen-3-ol]
1 nM | CCN(CCCCCCC1=C(c2cccc(O)c2)CCCc2cc(O)ccc21)CCC[S+]([O-])CCCC(F)(F)C(F)(F)F (racemic) [Example 86, 9-[6-(Ethyl{3-[(RS)-(4,4,5,5,5-pentafluoropentyl)sulphinyl]propyl}amino)hexyl]-8-(3-hydroxyphenyl)-6,7-dihydro-5H-benzo[7]annulen-3-ol]
1 nM | [O-][S+](CCCN(CCO)CCCCCCC1=C(c2cccc(O)c2)CCCc2cc(O)ccc21)CCCC(F)(F)C(F)(F)F (racemic) [Example 87, 9-{6-[(2-Hydroxyethyl){3-[(RS)-(4,4,5,5,5-pentafluoropentyl)sulphinyl]propyl}amino]hexyl}-8-(3-hydroxyphenyl)-6,7-dihydro-5H-benzo[7]annulen-3-ol]
1 nM | [O-][S+](CCCN(CCCO)CCCCCCC1=C(c2cccc(O)c2)CCCc2cc(O)ccc21)CCCC(F)(F)C(F)(F)F (racemic) [Example 88, 8-(3-Hydroxyphenyl)-9-{6-[(3-hydroxypropyl){3-[(RS)-(4,4,5,5,5-pentafluoropentyl)sulphinyl]propyl}amino]hexyl}-6,7-dihydro-5H-benzo[7]annulen-3-ol]
2 nM | CC(C)(O)CN(CCCCCCC1=C(c2cccc(O)c2)CCCc2cc(O)ccc21)CCC[S+]([O-])CCCC(F)(F)C(F)(F)F (racemic) [Example 89, 9-{6-[(2-Hydroxy-2-methylpropyl){3-[(RS)-(4,4,5,5,5-pentafluoropentyl)sulphinyl]propyl}amino]hexyl}-8-(3-hydroxyphenyl)-6,7-dihydro-5H-benzo[7]annulen-3-ol]
9 nM | CCN(CCCCCCC1=C(c2cccc(O)c2)CCCc2cc(O)ccc21)CCC[S+]([O-])CCC(F)(F)F (racemic) [Example 94, 9-[6-(Ethyl{3-[(RS)-(3,3,3-trifluoropropyl)sulphinyl]propyl}amino)hexyl]-8-(3-hydroxyphenyl)-6,7-dihydro-5H-benzo[7]annulen-3-ol]
7 nM | [O-][S+](CCCN(CCO)CCCCCCC1=C(c2cccc(O)c2)CCCc2cc(O)ccc21)CCC(F)(F)F (racemic) [Example 95, 9-{6-[(2-Hydroxyethyl){3-[(RS)-(3,3,3-trifluoropropyl)sulphinyl]propyl}amino]hexyl}-8-(3-hydroxyphenyl)-6,7-dihydro-5H-benzo[7]annulen-3-ol]
5 nM | [O-][S+](CCCN(CCCO)CCCCCCC1=C(c2cccc(O)c2)CCCc2cc(O)ccc21)CCC(F)(F)F (racemic) [Example 96, 8-(3-Hydroxyphenyl)-9-{6-[(3-hydroxypropyl){3-[(RS)-(3,3,3-trifluoropropyl)sulphinyl]propyl}amino]hexyl}-6,7-dihydro-5H-benzo[7]annulen-3-ol]
2 nM | CC(C)(O)CN(CCCCCCC1=C(c2cccc(O)c2)CCCc2cc(O)ccc21)CCC[S+]([O-])CCC(F)(F)F (racemic) [Example 97, 9-{6-[(2-Hydroxy-2-methylpropyl){3-[(RS)-(3,3,3-trifluoropropyl)sulphinyl]propyl}amino]hexyl}-8-(3-hydroxyphenyl)-6,7-dihydro-5H-benzo[7]annulen-3-ol]
25 nM | CN(CCCCCCC1=C(c2ccccc2)CCCc2c1ccc(O)c2Cl)CCC[S+]([O-])CCCC(F)(F)C(F)(F)F (racemic) [Example 104, 4-Chloro-9-[6-(methyl{3-[(RS)-(4,4,5,5,5-pentafluoropentyl)sulphinyl]propyl}amino)hexyl]-8-phenyl-6,7-dihydro-5H-benzo[7]annulen-3-ol]
2 nM | COCCCN(CCCCCCC1=C(c2cccc(O)c2)CCCc2cc(O)ccc21)CCC[S+]([O-])CCCC(F)(F)C(F)(F)F (racemic) [Example 108, 8-(3-Hydroxyphenyl)-9-{6-[(3-methoxypropyl){3-[(RS)-(4,4,5,5,5-pentafluoropentyl)sulphinyl]propyl}amino]hexyl}-6,7-dihydro-5H-benzo[7]annulen-3-ol]
5 nM | CN(CCCCCCC1=C(c2ccc(F)c(O)c2)CCCc2c1ccc(O)c2F)CCCC[S+]([O-])CCC(F)(F)F (racemic) [Example 120, 4-Fluoro-8-(4-fluoro-3-hydroxyphenyl)-9-[6-(methyl{4-[(RS)-(3,3,3-trifluoropropyl)sulphinyl]butyl}amino)hexyl]-6,7-dihydro-5H-benzo[7]annulen-3-ol]
6 nM | CN(CCCCCCC1=C(c2ccc(F)c(O)c2)CCCc2cc(O)c(F)cc21)CCC[S+]([O-])CCC(F)(F)C(F)(F)F (racemic) [Example 122, 2-Fluoro-8-(4-fluoro-3-hydroxyphenyl)-9-[6-(methyl{3-[(RS)-(3,3,4,4,4-pentafluorobutyl)sulphinyl]propyl}amino)hexyl]-6,7-dihydro-5H-benzo[7]annulen-3-ol]
6 nM | CN(CCCCCCC1=C(c2ccc(F)c(O)c2)CCCc2cc(O)c(F)cc21)CCCC[S+]([O-])CCCC(F)(F)C(F)(F)F (racemic) [Example 124, 2-Fluoro-8-(4-fluoro-3-hydroxyphenyl)-9-[6-(methyl{4-[(RS)-(4,4,5,5,5-pentafluoropentyl)sulphinyl]butyl}amino)hexyl]-6,7-dihydro-5H-benzo[7]annulen-3-ol]
16 nM | CN(CCCCCCC1=C(c2ccc(F)c(O)c2)CCCc2cc(O)c(F)cc21)CCC[S+]([O-])CCC(F)(F)F (racemic) [Example 125, 2-Fluoro-8-(4-fluoro-3-hydroxyphenyl)-9-[6-(methyl{3-[(RS)-(3,3,3-trifluoropropyl)sulphinyl]propyl}amino)hexyl]-6,7-dihydro-5H-benzo[7]annulen-3-ol]
4 nM | CC(C)(O)CN(CCCCCCC1=C(c2ccc(F)c(O)c2)CCCc2cc(O)c(F)cc21)CCC[S+]([O-])CCC(F)(F)F (racemic) [Example 129, 2-Fluoro-8-(4-fluoro-3-hydroxyphenyl)-9-{6-[(2-hydroxy-2-methylpropyl){3-[(RS)-(3,3,3-trifluoropropyl)sulphinyl]propyl}amino]hexyl}-6,7-dihydro-5H-benzo[7]annulen-3-ol]
